Reference: patent US8901301B2, “Pyrrolo[2,3-]pyridine kinase inhibitors” (Plexxikon Inc., priority 2009, dated 2014)

What was measured:
CYP1A2 = target: T1, CYP1A2 (Homo sapiens, UniProt P05177); test: CYP inhibition (fluorescent substrate), CYP1A2; type: in vitro ADME; details: substrate CEC; read-out: Cyp IC50 (μM) 1A2
T1 construct: purchased BD Biosciences
T1 sequence (P05177 1-516): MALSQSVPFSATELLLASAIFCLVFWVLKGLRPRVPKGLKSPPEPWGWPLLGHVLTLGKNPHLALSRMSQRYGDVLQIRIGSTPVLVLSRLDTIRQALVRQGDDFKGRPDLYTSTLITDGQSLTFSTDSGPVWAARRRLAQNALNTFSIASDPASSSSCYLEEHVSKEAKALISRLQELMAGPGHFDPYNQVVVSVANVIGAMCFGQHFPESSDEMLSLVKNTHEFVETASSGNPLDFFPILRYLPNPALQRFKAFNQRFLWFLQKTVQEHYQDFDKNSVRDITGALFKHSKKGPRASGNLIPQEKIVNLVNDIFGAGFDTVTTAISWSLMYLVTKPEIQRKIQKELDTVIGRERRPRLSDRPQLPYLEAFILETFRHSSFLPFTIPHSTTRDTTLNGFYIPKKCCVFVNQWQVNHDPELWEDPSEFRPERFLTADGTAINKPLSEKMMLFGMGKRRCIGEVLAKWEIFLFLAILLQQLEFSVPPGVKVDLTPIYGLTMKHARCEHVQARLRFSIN
Experimental: CYP (Cytochrome P450) enzymes are the major drug metabolizing enzymes present in the liver. The inhibition of CYP enzyme activity (IC50) for each of CYP1A2, CYP2C19, CYP2C9, CYP2D6, CYP3A4(BFC) and CYP3A4(BQ) is determined for compounds, where inhibition of metabolism of a known substrate leads to a decrease in the fluorescence of the metabolized product. The fluorescence of the product is monitored as a function of compound concentration. Compounds are dissolved in dimethyl sulfoxide to a concentration of 100 mM. These are diluted 1 μL into 82 μL of acetonitrile. An 11 μL aliquot of this solution is then added to 204 μL of cofactor mix (1.3% NADPH Regeneration system Solution A, 1.04% NADPH Regeneration system Solution B from BD Biosciences, 5% acetonitrile and 0.05% dimethyl sulfoxide). These are then serially diluted 1:1 (160 μL to 160 μL co-factor mix) for a total of 10 points. A 10 μL aliquot of this final mixture is dispensed into 384 well assay plates and incubated for 10 minutes at 37° C. […] Assay plates are incubated at 37° C. (CYP1A2-15 min; CYP2C9-45 min; CYP2C19, 2D6 and 3A4-30 min) and read in a Tecan Safire 2 plate reader (CYP1A2, 2C19 and 3A4 409 ex/460 em; CYP2C9 and 2D6 409 ex/530 em). The signal versus compound concentration is used to determine the IC50. The enzymes and substrates for this assay are obtained from BD Biosciences.

[1] = Relative solubility by turbidity in aqueous buffers; type: physicochemical; details: for turbidity threshold (L, M, H) 4.5: pH 4.5 (Simulated Intestinal fluid); for turbidity threshold (L, M, H) 6.8: pH 6.8 (Simulated Intestinal fluid); for turbidity threshold (L, M, H) 7.4: pH 7.4 (Hepes Buffer)
Experimental: As an indication of relative solubility, the turbidity of compounds in aqueous solutions is assessed. To assess possible compound properties in different physiological compartments, such as stomach, intestine, and blood, a series of aqueous buffers with varying pH is used. Thus each compound is diluted into four different physiologically relevant buffers and solution turbidity is measured by spectrophotometry.
Compounds are dissolved at a concentration of 25 mM in dimethyl sulfoxide, then serially diluted 1:1 into a 96 well plate, diluting 10 times in pure dimethyl sulfoxide, with the final well of each row a dimethyl sulfoxide blank. In an assay plate, 99 μL of appropriate buffer is added to each well, and 1 μL of each sample dilution is added to the buffer, achieving a range of final total concentrations in aqueous solutions having different pH. The buffers used are Simulated Gastric Fluid (SGF-pH 1.5) 0.5M NaCl, pH 1.5; Simulated Intestinal fluid (SIF-pH 4.5 and pH 6.8) 0.05M NaH2PO4, pH 4.5 and 6.8; and Hepes Buffer (HEPES-pH 7.4) 10 mM HEPES, 150 mM NaCl, pH 7.4. Control compounds pyrene, estriol and propranolol HCl are also assessed. Plates are spun and then mixed for 1 minute, and the absorbance is read using a Tecan Safire II to read wavelengths in the visible range (490, 535, and 650 nm) at four locations per well, reflecting the degree of turbidity present. The average optical density for each wavelength in each well is graphed vs. compound concentration, and the concentration at which the curve crosses a threshold O.D. of 0.01 for each wavelength is reported as the endpoint turbidity assay result. The average of the three wavelengths is used to compare turbidity of compounds. Compounds are considered to have low solubility if the threshold concentration is <31.3 μM, moderate solubility if the threshold concentration is 31.3 μM to 250 μM, and high solubility if the threshold concentration is >250 μM.

A375 cells = test: Cell growth inhibition (Cell Titer Glo), A375; type: cell-based; details: Homo sapiens, A-375, 72 h; B-Raf V600E cell line, 3 days
Experimental: Compounds are assessed in a variety of cell based assays, employing cells with or without B-Raf V600E mutation, for example cell lines with B-Raf V600E mutation (A375 and COLO205), as well as tumorigenic cell lines with wild-type B-RAF (SW620 and SK-MEL-2). Reagent and assay conditions are as follows:
A375 cells growth medium: • Dulbecco's modified Eagle's medium, 4 mM L-glutamine, 4.5 g/L D-glucose, 10% fetal bovine serum.
SK-MEL-2 cells growth medium: • Minimum Eagle essential medium, 2 mM L-glutamine, 1.5 g/L sodium bicarbonate, 0.1 mM non-essential amino acids, 1.0 mM sodium pyruvate, 10% fetal bovine serum. • On day 1, cells are seeded in growth media in 200 μL per well in a 96-well polystyrene tissue culture plate at 2,000 cells per well (A375, COLO205, SK-MEL-2) or 5,000 cells per well for SW620, and incubated at 37° C. and 5% CO2 overnight. • On day 2, compound at 4 mM in dimethyl sulfoxide is serially diluted 1:4 (10 μL with 30 μL dimethyl sulfoxide) seven times for a total of 8 concentration points. For each dilution point a 1 μL aliquot is added to a well containing cells (highest dilution point at 20 μM), with 1 μL of dimethyl sulfoxide as a negative control (each sample at 0.5% dimethyl sulfoxide). The cells are incubated for 3 days at 37° C. in 5% CO2. • On day 5, Cell Titer Glo (Promega) is thawed and added 100 μL to each well and the plate shaken for 1-2 minutes. The plates are incubated for 10 minutes at room temperature, then […] signal is read (e.g. on Safire reader). The measured fluoresence correlates directly with cell number, such that the reading as a function of compound concentration is used to determine the IC50 value.

SMILES	IC50 (CYP1A2) [µM]	turbidity threshold (L, M, H) 4.5 [1]	turbidity threshold (L, M, H) 6.8 [1]	turbidity threshold (L, M, H) 7.4 [1]	IC50 (A375 cells) [µM]
CCCS(=O)(=O)Nc1ccc(F)c(C(=O)c2c[nH]c3ncc(-c4cnc(OC)nc4)cc23)c1F [Compound P-0001, propane-1-sulfonic acid {2,4-difluoro-3-[5-(2-methoxy-pyrimidin-5-yl)-1H-pyrrolo[2,3-b]pyridine-3-carbonyl]-phenyl}-amide]	> 10	M (moderate solubility if the threshold concentration is 31.3 μM to 250 μM)	M (moderate solubility if the threshold concentration is 31.3 μM to 250 μM)	M (moderate solubility if the threshold concentration is 31.3 μM to 250 μM)	< 1
CCCS(=O)(=O)Nc1ccc(F)c(C(=O)c2c[nH]c3ncc(C#N)cc23)c1F [Compound P-0002, propane-1-sulfonic acid [3-(5-cyano-1H-pyrrolo[2,3-b]pyridine-3-carbonyl)-2,4-difluoro-phenyl]-amide]	> 10	M (moderate solubility if the threshold concentration is 31.3 μM to 250 μM)	M (moderate solubility if the threshold concentration is 31.3 μM to 250 μM)	M (moderate solubility if the threshold concentration is 31.3 μM to 250 μM)	< 1
CCCS(=O)(=O)Nc1cccc(C(=O)c2c[nH]c3ncc(C#N)cc23)c1F [Compound P-0003, propane-1-sulfonic acid [3-(5-cyano-1H-pyrrolo[2,3-b]pyridine-3-carbonyl)-2-fluoro-phenyl]-amide]	> 10	M (moderate solubility if the threshold concentration is 31.3 μM to 250 μM)	M (moderate solubility if the threshold concentration is 31.3 μM to 250 μM)	M (moderate solubility if the threshold concentration is 31.3 μM to 250 μM)	< 2
N#Cc1cnc2[nH]cc(C(=O)c3c(F)ccc(NS(=O)(=O)c4cc(F)ccc4F)c3F)c2c1 [Compound P-0004, N-[3-(5-cyano-1H-pyrrolo[2,3-b]pyridine-3-carbonyl)-2,4-difluoro-phenyl]-2,5-difluoro-benzenesulfonamide]	> 10	M (moderate solubility if the threshold concentration is 31.3 μM to 250 μM)	M (moderate solubility if the threshold concentration is 31.3 μM to 250 μM)	M (moderate solubility if the threshold concentration is 31.3 μM to 250 μM)	< 1
N#Cc1cnc2[nH]cc(C(=O)c3c(F)ccc(NS(=O)(=O)c4cccc(F)c4)c3F)c2c1 [Compound P-0005, N-[3-(5-cyano-1H-pyrrolo[2,3-b]pyridine-3-carbonyl)-2,4-difluoro-phenyl]-3-fluoro-benzenesulfonamide]	> 10	M (moderate solubility if the threshold concentration is 31.3 μM to 250 μM)	M (moderate solubility if the threshold concentration is 31.3 μM to 250 μM)	M (moderate solubility if the threshold concentration is 31.3 μM to 250 μM)	< 1
N#Cc1cnc2[nH]cc(C(=O)c3c(F)ccc(NS(=O)(=O)N4CCCC4)c3F)c2c1 [Compound P-0006, pyrrolidine-1-sulfonic acid [3-(5-cyano-1H-pyrrolo[2,3-b]pyridine-3-carbonyl)-2,4-difluoro-phenyl]-amide]	> 10	M (moderate solubility if the threshold concentration is 31.3 μM to 250 μM)	M (moderate solubility if the threshold concentration is 31.3 μM to 250 μM)	M (moderate solubility if the threshold concentration is 31.3 μM to 250 μM)	< 1
CN(C)S(=O)(=O)Nc1ccc(F)c(C(=O)c2c[nH]c3ncc(C#N)cc23)c1F [Compound P-0007, N,N-dimethylamino-sulfonic acid [3-(5-cyano-1H-pyrrolo[2,3-b]pyridine-3-carbonyl)-2,4-difluoro-phenyl]-amide]	> 10	M (moderate solubility if the threshold concentration is 31.3 μM to 250 μM)	H (high solubility if the threshold concentration is >250 μM)	H (high solubility if the threshold concentration is >250 μM)	< 2
